What was measured:
[1] = tested on: IL-1beta release from a mouse microglial cell line; experiment: Interleukin-1 beta microglial cell assay; type: cell-based; settings: LPS and IFN gamma stimulation, 24 hours, read-out: inhibition of IL-1beta induction, EC50
Protocol: This assay measures the release of IL-1β from a mouse microglial cell line following an inflammatory challenge with LPS and interferon-gamma. The ability of test articles to inhibit microglial cell activation and IL-1beta release is determined by co-incubation of the test article with the inflammatory challenge. Cytokine release is measured using a mouse IL-1β ELISA and cell toxicity is determined using Cell Tracker Green (a fluorescent dye that measures cell viability).
Mouse microglial cells were seeded in poly-D-lysine coated 96-well plates at a density of 10,000 cells/well and allowed to attach for 24 hours. Cells were stimulated by addition of LPS (10 μg/ml) and IFN gamma (10 ng/ml) in the presence or absence of test article. The cells were then incubated for 24 hours at 37° C., after which time the media was removed and used for cytokine determination as described below.
Viability of mouse microglial cells after exposure to the test article was determined using a fluorescent viability dye, Cell Tracker Green. Cell Tracker Green was used at a working concentration of 5 μM in 1× HBSS. Cells were washed once with HBSS (200 μl/well) and 100 μl Cell Tracker Green was added to each well. Cells were then incubated at 37° C. for 30 minutes, after which time the Cell Tracker was removed and the cells were washed once with HBSS (200 μl/well). 100 μl fresh HBSS was added to each well and the plate was read on a Fluoroskan plate reader using an excitation wavelength of 485 nm and an emission wavelength of 538 nm.
1. The IL-1β capture antibody was reconstituted in 1 ml of PBS to give a final concentration of 720 μg/ml, and the working concentration was 4 μg/ml. For coating one 96-well plate (at 100 μl/well) 56 μl of the 720 μg/ml stock was diluted into 10 ml of PBS. 2. The IL-1β standards were reconstituted in 0.5 ml of Reagent Diluent (70 ng/ml). For a high standard of 1 ng/ml (2 wells at 100 μl each+enough for series dilution) 7.1 μl of the 70 ng/ml standard were diluted into 0.5 ml of Reagent Diluent 3. The IL-1β detection antibody was reconstituted in 1 ml of Reagent Diluent to give a final concentration of 18 μg/ml and the working concentration is 100 ng/ml. For one 96-well plate (at 100 μl/well) 56 μl of the 18 μg/ml stock was diluted into 10 ml of Reagent Diluent.
1. The Costar EIA Hi-binding plate was coated with capture antibody at 4 μg/ml. Each well was coated with 100 μl, and the plate was sealed and incubated overnight at room temperature.
2. Each well was aspirated and washed 3× with Wash Buffer. Each well was filled to the top, dispensed, and any remaining buffer was removed by inverting the plate and gently blotting against clean paper towels.
3. Non-specific binding sites were blocked by adding 300 μl of Blocking Buffer to each well, and after sealing incubating for at least 1 hour at room temperature.
5. 100 μl of either standard or sample were added in each well of the capture-coated and pre-blocked plate. The plate was sealed and incubated for 2 hours at room temperature, followed with washing as in step 2.
6. 100 μl of the detection antibody ([…]) were added to each well.
7. The plate was sealed and incubated at room temperature for 2 hours, followed with washing as in step 2.
8. 100 μl of the working dilution of Streptavidin-HRP was added, and the plate was sealed and incubated in the dark for 20 minutes at room temperature, followed with washing as in Step 2.
9. The fresh Substrate Solution was prepared by mixing Color Reagent A (H2O2) and Color Reagent B (Tetramethylbenzidine) in a 1:1 ratio. 100 μl of this Substrate Solution mixture was added to each well and the plate was incubated in the dark for 20 minutes at room temperature. 10. 50 μl of Stop Solution was added to each well, mixing was ensured by gently tapping. 11. Each plate was read with the Spectramax once at 450 nm. Results

[2] = tested on: ELAM (E-selectin) expression in endothelial cells; experiment: E-selectin (ELAM) cell inflammation assay; type: cell-based; settings: LPS and IL-1β stimulation, read-out: reduction of expression of ELAM, EC50
Protocol: Endothelial-Leukocyte Adhesion Molecule (ELAM), also known as E-selectin, is expressed on the surface of endothelial cells. In this assay, lipopolysaccharide (LPS) and IL-1β are used to stimulate the expression of ELAM; test agents are tested for their abilities to reduce this expression, in accordance with studies showing that reduction of leukocyte adhesion to endothelial cell surface is associated with decreased cellular damage (e.g., Takada, M., Et al., Transplantation 64: 1520-25, 1997; Steinberg, J. B., et al., J. Heart Lung Trans. 13:306-313, 1994).
Endothelial cells may be selected from any of a number of sources and cultured according to methods known in the art; including, for example, coronary artery endothelial cells, human brain microvascular endothelial cells (HBMEC; Hess, D.C., et al., Neurosci. Left. 213(1): 37-40, 1996), or lung endothelial cells. Cells are conveniently cultured in 96-well plates. Cells are stimulated by adding a solution to each well containing 10 μg/ml LPS and 100 pg/ml IL-1β for 6 hours in the presence of test agent (specific concentrations and time may be adjusted depending on the cell type). Treatment buffer is removed and replaced with pre-warmed Fixing Solution® (100 μl/well) for 25 minutes at room temperature. Cells are then washed 3×, then incubated with Blocking Buffer (PBS+2% FBS) for 25 minutes at room temperature. Blocking Buffer containing Monoclonal E-Selectin Antibody (1:750, Sigma Catalog #S-9555) is added to each well. Plates are sealed and stored at 4° overnight. Plates are washed 4× with 160 μL Blocking Buffer per well. Second Antibody-HRP diluted 1:5000 in Blocking Buffer is then added (100 μL/well), and plates are incubated at room temperature (protected from light) for two hours. Plates are then washed 4× with Blocking Buffer before addition of 100 μL of ABTS Substrate solution at room temperature (Zymed, Catalog #00-2024). Wells are allowed to develop for 35 minutes, before measurement at 402 nm in a Fluoroskan® Reader with shake program for 10 seconds. Positive results are recorded as a decrease in ELAM concentration in tested wells, as compared to control wells.

| SMILES | EC50 [1] | EC50 [2] |
| --- | --- | --- |
| CCOC(=O)C1(CSc2nc3ccc([N+](=O)[O-])cc3s2)OC(=O)C(O)=C1Sc1nc2ccc([N+](=O)[O-])cc2s1 (stereo not shown) [4-Hydroxy-3-(6-nitro-benzothiazol-2-ylsulfanyl)-2-(6-nitro-benzothiazol-2-ylsulfanylmethyl)-5-oxo-2,5-dihydro-furan-2-carboxylic acid ethyl ester] | ≤ 20 µM | ≤ 30 µM |
| CCOC(=O)CSCC1(C(=O)OCC)OC(=O)C(OC(=O)C(C)(C)C)=C1SCC(=O)OCC (stereo not shown) [4-(2,2-Dimethyl-propionyloxy)-3-ethoxycarbonylmethylsulfanyl-2-ethoxycarbonylmethylsulfanylmethyl-5-oxo-2,5-dihydro-furan-2-carboxylic acid ethyl ester] | ≤ 20 µM | ≤ 30 µM |
| CCOC(=O)C1(CSCc2c(F)cccc2Cl)OC(=O)C(O)=C1SCc1c(F)cccc1Cl (stereo not shown) [3-(2-Chloro-6-fluoro-benzylsulfanyl)-2-(2-chloro-6-fluoro-benzylsulfanylmethyl)-4-hydroxy-5-oxo-2,5-dihydro-furan-2-carboxylic acid ethyl ester] | ≤ 20 µM | ≤ 30 µM |
| CCOC(=O)C1(CSc2nc3ccccc3[se]2)OC(=O)C(O)=C1Sc1nc2ccccc2[se]1 (stereo not shown) [3-(Benzoselenazol-2-ylsulfanyl)-2-(benzoselenazol-2-ylsulfanylmethyl)-4-hydroxy-5-oxo-2,5-dihydro-furan-2-carboxylic acid ethyl ester] | ≤ 20 µM | ≤ 30 µM |
| CCOC(=O)C1(CSc2ccc(C=CC(=O)OC)cc2)OC(=O)C(O)=C1Sc1ccc(C=CC(=O)OC)cc1 (stereo not shown) [4-Hydroxy-3-[4-(2-methoxycarbonyl-vinyl)-phenylsulfanyl]-2-[4-(2-methoxycarbonyl-vinyl)-phenylsulfanylmethyl]-5-oxo-2,5-dihydro-furan-2-carboxylic acid ethyl ester] | ≤ 20 µM | ≤ 30 µM |
| CCOC(=O)C1(CSCc2ccco2)OC(=O)C(O)=C1SCc1ccco1 (stereo not shown) [3-(Furan-2-ylmethylsulfanyl)-2-(furan-2-ylmethylsulfanylmethyl)-4-hydroxy-5-oxo-2,5-dihydro-furan-2-carboxylic acid ethyl ester] | ≤ 20 µM | – |
| CCOC(=O)C1(CSCc2ccco2)OC(=O)C(OC(=O)C(C)(C)C)=C1SCc1ccco1 (stereo not shown) [4-(2,2-Dimethyl-propionyloxy)-3-(furan-2-ylmethylsulfanyl)-2-(furan-2-ylmethylsulfanylmethyl)-5-oxo-2,5-dihydro-furan-2-carboxylic acid ethyl ester] | ≤ 20 µM | – |
| CCCCSCC1(C(=O)OCC)OC(=O)C(O)=C1SCCCC (stereo not shown) [3-Butylsulfanyl-2-butylsulfanylmethyl-4-hydroxy-5-oxo-2,5-dihydro-furan-2-carboxylic acid ethyl ester] | ≤ 20 µM | – |

The next lines start with the values.

| EC50 [1] | EC50 [2] | SMILES |
| --- | --- | --- |
| ≤ 20 µM | – | CCOC(=O)C1(CSCc2ccc(OC)cc2)OC(=O)C(O)=C1SCc1ccc(OC)cc1 (stereo not shown) [4-Hydroxy-3-(4-methoxy-benzylsulfanyl)-2-(4-methoxy-benzylsulfanylmethyl)-5-oxo-2,5-dihydro-furan-2-carboxylic acid ethyl ester] |
| ≤ 20 µM | ≤ 30 µM | CCOC(=O)C1(CSc2nc3ccccc3[nH]2)OC(=O)C(OCC)=C1Sc1nc2ccccc2n1CC (stereo not shown) [2-(1H-Benzoimidazol-2-ylsulfanylmethyl)-4-ethoxy-3-(1-ethyl-1H-benzoimidazol-2-ylsulfanyl)-5-oxo-2,5-dihydro-furan-2-carboxylic acid ethyl ester] |
| ≤ 20 µM | ≤ 30 µM | CCOC(=O)C1(CSc2ccc(F)cc2Cl)OC(=O)C(O)=C1Sc1ccc(F)cc1Cl (stereo not shown) [3-(2-Chloro-4-fluoro-phenylsulfanyl)-2-(2-chloro-4-fluoro-phenylsulfanylmethyl)-4-hydroxy-5-oxo-2,5-dihydro-furan-2-carboxylic acid ethyl ester] |
| ≤ 20 µM | ≤ 30 µM | CCOC(=O)C1(CSc2nc(-c3ccccc3)cs2)OC(=O)C(O)=C1Sc1nc(-c2ccccc2)cs1 (stereo not shown) [4-Hydroxy-5-oxo-3-(4-phenyl-thiazol-2-ylsulfanyl)-2-(4-phenyl-thiazol-2-ylsulfanylmethyl)-2,5-dihydro-furan-2-carboxylic acid ethyl ester] |
| ≤ 20 µM | ≤ 30 µM | CCOC(=O)C1(C[S+]([O-])c2nc3ccccc3s2)OC(=O)C(O)=C1Sc1nc2ccccc2s1 (stereo not shown) [2-(Benzothiazole-2-sulfinylmethyl)-3-(benzothiazol-2-ylsulfanyl)-4-hydroxy-5-oxo-2,5-dihydro-furan-2-carboxylic acid ethyl ester] |
| ≤ 20 µM | ≤ 30 µM | CC(C)OC(=O)C1(CSc2nc3ccccc3s2)OC(=O)C(O)=C1Sc1nc2ccccc2s1 (stereo not shown) [3-(Benzothiazol-2-ylsulfanyl)-2-(benzothiazol-2-ylsulfanylmethyl)-4-hydroxy-5-oxo-2,5-dihydro-furan-2-carboxylic acid isopropyl ester] |
| ≤ 20 µM | – | CCOC(=O)C1(CSc2nccc(C)n2)OC(=O)C(O)=C1Sc1nccc(C)n1 (stereo not shown) [4-Hydroxy-3-(4-methyl-pyrimidin-2-ylsulfanyl)-2-(4-methyl-pyrimidin-2-ylsulfanylmethyl)-5-oxo-2,5-dihydro-furan-2-carboxylic acid ethyl ester] |
| ≤ 20 µM | – | CCOC(=O)C1(CSc2ncccn2)OC(=O)C(O)=C1Sc1ncccn1 (stereo not shown) [4-Hydroxy-5-oxo-3-(pyrimidin-2-ylsulfanyl)-2-(pyrimidin-2-ylsulfanylmethyl)-2,5-dihydro-furan-2-carboxylic acid ethyl ester] |
| ≤ 20 µM | – | COC(=O)C1(CSc2nc3ccccc3s2)OC(=O)C(O)=C1Sc1nc2ccccc2o1 (stereo not shown) [3-(Benzooxazol-2-ylsulfanyl)-2-(benzothiazol-2-ylsulfanylmethyl)-4-hydroxy-5-oxo-2,5-dihydro-furan-2-carboxylic acid methyl ester] |
| ≤ 20 µM | – | O=C1OC(CO)(CSc2nc3ccccc3o2)C(Sc2nc3ccccc3o2)=C1O (stereo not shown) [4-(Benzooxazol-2-ylsulfanyl)-5-(benzooxazol-2-ylsulfanylmethyl)-3-hydroxy-5-hydroxymethyl-5H-furan-2-one] |
